Reference: US5061690A, “Method for increasing milk production in mammals and/or increasing the birth weight of their newborn and improving postnatal growth” (Institut National de la Recherche Agronomique, priority 1987, dated 1991)
Entries after “also recorded” stand apart in the source; their conditions may differ. Where two headings read alike, the source gives them in different places.

Assays:
multiparous gravid ewes [1] = assay: hGRF (1-29) on completion of two-thirds and/or at end of gestation in ewes: milk production; format: in vivo
Experimental: 48 multiparous gravid ewes were distributed in four batches of 12 ewes each, account being taken of the earlier milk productions and of the anticipated parity (OCS--Ovine Chorionic Somatotropin--assay). The first batch forms the control batch, the ewes receiving no treatment. The other three batches receive 1.5 mg of hGRF (1-29) subcutaneously twice daily; from day 105 to day 115 of gestation for the second batch, which will be designated hereinafter as batch "GRF1"; from day 137 of gestation to littering for the third batch, which will be designated hereinafter as batch "GRF2"; and from day 105 to day 115 of gestation and from day 137 of gestation to littering for the fourth batch, which will be designated hereinafter as batch "GRF1+2". As in the above study, the administration of hGRF (1-29) is stopped as soon as parturition takes place, and lambing is induced by the administration of dexamethasone on day 145 of gestation, under the conditions described above. After parturition, the milk production of the ewes was measured twice daily, and the growth of the lambs, which received an artificial milk-feed supplied "ad libitum", was followed, the lambs receiving no growth adjuvant treatment. After a variance analysis, taking the earlier production as covariable, and after correction taking into account the parity (number of lambs per pregnancy) during the lactation in progress and during the reference lactation, the results for the milk production were compared between the control batches and batches "GRF1" and "GRF2". From the results obtained over five weeks of lactation, the curves of FIGS. 4 and 5 were plotted, the source data being reported in Table 2 below.

multiparous gravid ewes [2] = assay: hGRF (1-29) on completion of two-thirds and/or at end of gestation in ewes: birth weight and growth of lambs; format: in vivo; conditions: for Weight of the Lambs at 30 days: control 12.12 ± 0.7 kg
Experimental: 48 multiparous gravid ewes were distributed in four batches of 12 ewes each, account being taken of the earlier milk productions and of the anticipated parity (OCS--Ovine Chorionic Somatotropin--assay). The first batch forms the control batch, the ewes receiving no treatment. The other three batches receive 1.5 mg of hGRF (1-29) subcutaneously twice daily; from day 105 to day 115 of gestation for the second batch, which will be designated hereinafter as batch "GRF1"; from day 137 of gestation to littering for the third batch, which will be designated hereinafter as batch "GRF2"; and from day 105 to day 115 of gestation and from day 137 of gestation to littering for the fourth batch, which will be designated hereinafter as batch "GRF1+2". As in the above study, the administration of hGRF (1-29) is stopped as soon as parturition takes place, and lambing is induced by the administration of dexamethasone on day 145 of gestation, under the conditions described above. After parturition, the milk production of the ewes was measured twice daily, and the growth of the lambs, which received an artificial milk-feed supplied "ad libitum", was followed, the lambs receiving no growth adjuvant treatment. The analysis concerned only twin lambs, distributed as follows: At the age of 30 days, after variance analysis taking birth weight as covariable, a larger growth of all the lambs born of the mothers of batch GRF2 was observed. This is shown in FIG. 3, which is an illustration similar to that of FIG. 4, enabling the weights of the lambs born of the mothers of the four batches to be compared at the age of 30 days. Table 1 below complements this FIG. 3.

gravid ewes [3] = assay: OGH (growth hormone) assay in gravid ewes given hGRF (1-29) at the end of gestation; format: in vivo; conditions: batch B
Experimental: 30 gravid ewes which were at the 135th day of gestation were distributed in two batches of 15 ewes each, account being taken of the number of fetuses assumed to be present in the uteri and of the earlier milk outputs, all the ewes being multiparous. Batch A, which receives no treatment, serves as control batch. Batch B receives 1.5 mg of hGRF (1-29) (equivalent to approximately 20 μg per kg of body weight) subcutaneously twice daily, at 8.00 hours and 14.00 hours, from day 137 of gestation up to the day of littering (which varied between day 145 and day 147, depending on the ewe). The administration of hGRF (1-29) is stopped as soon as parturition takes place. In all the animals, lambing is induced by the administration of 9 α-fluoro-11β,17α,21-trihydroxy-16α-methyl-1,4-pregnadiene-3,20-dione (proposed under the INN of dexamethasone) on the basis of 16 mg intramuscularly at 20.00 hours on day 144 of gestation. […] This discharge is the same in nature after the morning injection and after that of the afternoon. […] This is shown in FIG. 1 of the attached drawings, which represents the OGH hormone assay in terms of the time of day (mean over 15 ewes) on day 138 and on day 146 of gestation.

gravid ewes [4] = format: in vivo
Experimental: 30 gravid ewes which were at the 135th day of gestation were distributed in two batches of 15 ewes each, account being taken of the number of fetuses assumed to be present in the uteri and of the earlier milk outputs, all the ewes being multiparous. Batch A, which receives no treatment, serves as control batch. Batch B receives 1.5 mg of hGRF (1-29) (equivalent to approximately 20 μg per kg of body weight) subcutaneously twice daily, at 8.00 hours and 14.00 hours, from day 137 of gestation up to the day of littering (which varied between day 145 and day 147, depending on the ewe). The administration of hGRF (1-29) is stopped as soon as parturition takes place. In all the animals, lambing is induced by the administration of 9 α-fluoro-11β,17α,21-trihydroxy-16α-methyl-1,4-pregnadiene-3,20-dione (proposed under the INN of dexamethasone) on the basis of 16 mg intramuscularly at 20.00 hours on day 144 of gestation. The birth weights of the lambs born of mothers of the two batches A and B were compared.

dairy cows = conditions: cited from earlier work; for milk production increased: milk adjusted to fat content 3.5%
[5] = 1.5 mg s.c. twice daily from day 137 of gestation to littering

**Q.** Which “milk production greater than that of the control ewes” value (multiparous gravid ewes [1]; batch GRF1 (days 105 to 115 of gestation), fifth week of lactation) does the source give for “hGRF (1-29): form of human growth hormone releasing factor containing 29 amino acids, obtained after deletion of the C-terminal portion” here?
**A.** Its value is “more than 23%”.

**Q.** What about the Milk production (multiparous gravid ewes [1]; batch GRF1, week of lactation 1, FIG. 4, control 980 ± 70) of the same molecule?
**A.** The Milk production was 1075 ± 50.

**Q.** What about the Milk production (multiparous gravid ewes [1]; batch GRF1, week of lactation 2, FIG. 4, control 950 ± 60) of the same molecule?
**A.** Its Milk production is 1090 ± 70.

**Q.** And the Milk production (multiparous gravid ewes [1]; batch GRF1, week of lactation 3, FIG. 4, control 845 ± 50)?
**A.** The Milk production was 1025 ± 60.

**Q.** And the Milk production (multiparous gravid ewes [1]; batch GRF1, week of lactation 4, FIG. 4, control 760 ± 45)?
**A.** Its Milk production is 920 ± 60.

**Q.** What about the Milk production (multiparous gravid ewes [1]; batch GRF1, week of lactation 5, FIG. 4, control 720 ± 50) of the same molecule?
**A.** The Milk production was 880 ± 50.

**Q.** And the Milk production (multiparous gravid ewes [1]; batch GRF2, week of lactation 1, FIG. 5, control 1020 ± 50)?
**A.** The Milk production was 1050 ± 60.

**Q.** And the Milk production (multiparous gravid ewes [1]; batch GRF2, week of lactation 2, FIG. 5, control 1025 ± 60)?
**A.** The Milk production was 1010 ± 50.

**Q.** And the Milk production (multiparous gravid ewes [1]; batch GRF2, week of lactation 3, FIG. 5, control 975 ± 50)?
**A.** The Milk production was 855 ± 50.

**Q.** What about the Milk production (multiparous gravid ewes [1]; batch GRF2, week of lactation 4, FIG. 5, control 925 ± 50) of the same molecule?
**A.** Its Milk production is 840 ± 40.

**Q.** And the Milk production (multiparous gravid ewes [1]; batch GRF2, week of lactation 5, FIG. 5, control 860 ± 50)?
**A.** The Milk production was 745 ± 60.

**Q.** And the “Weight of the Lambs at 30 days” value (multiparous gravid ewes [2]; batch GRF1+2: day 105 to 115 and day 137 to littering, 10 lambs)?
**A.** The value was 13 ± 0.66 kg.

**Q.** What about the “birth weight of the lambs versus control” value (multiparous gravid ewes [2]; batch GRF1+2: day 105 to 115 and day 137 to littering, twin lambs n=12) of the same molecule?
**A.** Its value is “substantially similar”.

**Q.** And the “Weight of the Lambs at 30 days” value (multiparous gravid ewes [2]; batch GRF1: day 105 to 115 of gestation, 14 lambs)?
**A.** Its value is 13.6 ± 0.5 kg.

**Q.** And the “birth weight of the lambs versus control” value (multiparous gravid ewes [2]; batch GRF1: day 105 to day 115 of gestation, twin lambs n=16)?
**A.** The value was “substantially similar; also recorded: of the same order”.

**Q.** And the “mean birth weight of the lambs” value (multiparous gravid ewes [2]; batch GRF2: day 137 of gestation to littering, twin lambs n=12, control 2.91 kg)?
**A.** The value was 3.54 kg.

**Q.** And the “Weight of the Lambs at 30 days” value (multiparous gravid ewes [2]; batch GRF2: day 137 to littering, 12 lambs)?
**A.** Its value is 14.73 ± 0.53 kg.

**Q.** What about the “excess of lamb growth at 30 days over lambs of control mothers” value (multiparous gravid ewes [2]; ewes treated between days 105 and 115 of gestation (GRF1)) of the same molecule?
**A.** The value was roughly 11%.

**Q.** What about the “excess of lamb weight at 30 days over the controls” value (multiparous gravid ewes [2]; mothers treated between days 137 and 147 of gestation (GRF2), corrected for birth weight) of the same molecule?
**A.** The value was 21%.

**Q.** And the “discharge of growth hormone (GH)” value (gravid ewes [3]; [5])?
**A.** Its value is “of large magnitude”.

**Q.** And the “duration of the discharge of growth hormone after the subcutaneous injection” value (gravid ewes [3]; [5])?
**A.** The value was “approximately 5 hours”.

**Q.** And the “GH response, day 146 versus day 138 of gestation” value (gravid ewes [3]; mean over 15 ewes, FIG. 1)?
**A.** The value was “magnified as the term of the pregnancy is approached”.

**Q.** What about the “birth weight of the lambs born of treated mothers” value (gravid ewes [4]; batch B, n=20, 1.5 mg s.c. twice daily day 137 to littering, control batch A 3.61±0.14 kg) of the same molecule?
**A.** Its value is 4.17 ± 0.13 kg.

**Q.** And the “effect on dates of the lambing (parturition)” value (gravid ewes [4]; in vivo)?
**A.** The value was “not modifying the dates of the lambing”.

B1: bGH: bovine growth hormone obtained by genetic recombination (protein, UniProt P01246 27-217, looked up)
Somatotropin: AFPAMSLSGLFANAVLRAQHLHQLAADTFKEFERTYIPEGQRYSIQNTQVAFCFSETIPAPTGKNEAQQKSDLELLRISLLLIQSWLGPLQFLSRVFTNSLVFGTSDRVYEKLKDLEEGILALMRELEDGTPRAGQILKQTYDKFDTNMRSDDALLKNYGLLSCFRKDLHKTETYLRVMKCRRFGEASCAF
**Q.** Which milk production increased (dairy cows; 12.5 mg bGH per day) does the source give for B1 here?
**A.** Its milk production increased is 16%.

**Q.** And the “nutritional efficiency (kg milk with 3.5% fat per kg dry matter ingested) increased” value (dairy cows; 12.5 mg bGH/day for a long period)?
**A.** The value was 13.8%.

**Q.** And the milk production increased (dairy cows; 25 mg bGH per day)?
**A.** The milk production increased was 19%.

**Q.** And the “nutritional efficiency (kg milk with 3.5% fat per kg dry matter ingested) increased” value (dairy cows; 25 mg bGH/day for a long period)?
**A.** The value was 16.8%.

**Q.** What about the milk production increased (dairy cows; 50 mg bGH per day) of the same molecule?
**A.** The milk production increased was 22%.

**Q.** And the “nutritional efficiency (kg milk with 3.5% fat per kg dry matter ingested) increased” value (dairy cows; 50 mg bGH/day for a long period)?
**A.** Its value is 15.3%.
